# From PMC8484532, “Synthesis and Evaluation of New Halogenated GR24 Analogs as Germination Promotors for Orobanche cumana” (Frontiers in Plant Science, 2021)
# Read-outs that look alike come from different tables or passages of the source.
# Target: T1, ShHTL7 (Striga hermonthica, UniProt A0A0M3PNA2)
# T1 sequence (A0A0M3PNA2 1-271): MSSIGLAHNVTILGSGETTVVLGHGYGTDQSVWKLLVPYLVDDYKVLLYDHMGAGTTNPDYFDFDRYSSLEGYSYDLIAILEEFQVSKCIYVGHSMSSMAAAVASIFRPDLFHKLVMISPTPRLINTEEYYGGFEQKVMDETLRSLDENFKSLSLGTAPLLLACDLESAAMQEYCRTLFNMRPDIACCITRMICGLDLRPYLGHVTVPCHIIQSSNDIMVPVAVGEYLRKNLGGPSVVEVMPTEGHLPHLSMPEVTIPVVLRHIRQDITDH
# Assay: in vitro yoshimulactone green (YLG) fluorescence competition assay
# Format: biochemical
Structure (SMILES),IC50 [nM],IC50 (read-out: IC50) [nM]
CC1=C[C@H](O/C=C2/C(=O)O[C@@H]3c4ccccc4C[C@H]23)OC1=O [(+)-GR24],248 ± 32,
CC1=CC(O/C=C2/C(=O)OC3c4ccccc4CC23)OC1=O (racemic) [rac-GR24],319 ± 32,
"CC1=CC(O/C=C2/C(=O)OC3c4cc(F)ccc4CC23)OC1=O (stereo not shown) [7FGR24, 7-fluoro-GR24]",,189 ± 12
"CC1=CC(O/C=C2/C(=O)OC3c4cc(Br)ccc4CC23)OC1=O (stereo not shown) [7BrGR24, 7-bromo-GR24]",,521 ± 87
